The conditions of data set [1]: mice (n = 5), exposure to Magic Gold smoke (3.6% JWH-018, 5.7% JWH-073); cited from earlier work.
The conditions of data set [2]: pigs, previous study; cited from earlier work.
The conditions of data set [3]: for concentration at 6 h: pig, iv, 200 µg/kg BW.
For data set [4] the following is noted: human fatal case, cited from earlier work.
For data set [5] the following is noted: cited from earlier work.
The conditions of data set [6]: one human decedent of five postmortem cases; cited from earlier work.
Where [7] appears, read: pigs, 6 h after single i.v. 200 µg/kg BW.

Values joined by “and” are separate entries in the source; they are usually repeats but may differ in a detail not shown here. Identical values can stand only once. Like-named read-outs stand apart in the source and are kept apart here.

The term LogP denotes the decadic logarithm of the partition coefficient of the neutral form, usually between octanol and water.

On to `CCCCCn1cc(C(=O)c2cccc3ccccc23)c2ccccc21` [JWH-018, naphthalen-1-yl-(1-pentylindol-3-yl)methanone], for which the “Concentration in brain specimens twenty hours post-exposure” value in data set [1] is on record as 19 ± 9 ng/g.

For the molecule `CCCCCn1cc(C(=O)c2ccc(CC)c3ccccc23)c2ccccc21` [JWH-210, 4-ethylnaphthalen-1-yl-(1-pentylindol-3-yl)methanone], the “Serum concentration six hours after administration” value in data set [2] is 3.1 ± 1.1 ng/mL. Also, the concentration at 6 h in data set [3] (bile) is 26 ± 19 ng/g; in data set [3] (brain (cerebellum)), 32 ± 9 ng/g; in data set [3] (brain (cerebrum)), 20 ± 6.8 ng/g; in data set [3] (dura), 1.7 ± 0.8 ng/g; in data set [3] (heart) it was 19 ± 6.1 ng/g; in data set [3] (kidney (left)), 43 ± 34 ng/g. Besides, the concentration at 6 h in data set [3] (kidney (right)) came out at 53 ± 45 ng/g; in data set [3] (liver), 14 ± 6.2 ng/g; in data set [3] (lung (left)), 8.6 ± 4.4 ng/g; in data set [3] (lung (right)), 6.9 ± 2.1 ng/g; in data set [3] (psoas muscle) it was 20 ± 9.5 ng/g; in data set [3] (skeletal muscle) it was 21 ± 8 ng/g. Further, in data set [3] (spleen), the concentration at 6 h is 11 ± 6.8 ng/g. In addition, the “Detection in vitreous humor (qualitative analysis)” value in data set [3] (setting [7]) is “positive results”.

Consider `CCc1ccc(C(=O)c2cn(CCCCC(=O)O)c3ccccc23)c2ccccc12` [JWH-210-COOH, JWH-210-pentanoic acid], for which the “Concentration in kidney specimens, individual cases” value in data set [3] (pigs, 6 h after i.v. 200 µg/kg BW JWH-210, detectable in two cases) is 0.5 ng/g and 1 ng/g.

In the case of `Cc1ccc(C(=O)c2cn(CCCCCF)c3ccccc23)c2ccccc12` [MAM-2201], the “Concentration in adipose tissue” value in data set [4] (postmortem interval about four days) is reported as 1,535 ng/g. In data set [4] (postmortem), the Concentration in brain was 4.3 ng/g, the “Concentration in heart blood” value was 12.4 ng/mL, the Concentration in kidney is 11.2 ng/g and the Concentration in liver is 18.1 ng/g.

Consider `COc1ccc(C(=O)c2cn(CCCCC(=O)O)c3ccccc23)cc1` [RCS-4-COOH, RCS-4-pentanoic acid], for which the “Concentration in bile fluid, individual pigs” value in data set [3] (pigs, 6 h after i.v. 200 µg/kg BW RCS-4, two pigs) was 47 ng/g and 154 ng/g.

`CCCCCc1cc(O)c2c(c1)OC(C)(C)[C@@H]1CCC(C)=C[C@@H]21` [THC, ∆9-tetrahydrocannabinol]: the LogP in data set [5] was 6.7. In addition, the “Serum concentration six hours after administration” value in data set [2] was 7.1 ± 4.3 ng/mL. Further, in data set [6], the “Peak concentration in muscle tissue” value is on record as 40 ng/g. The concentration at 6 h in data set [3] (bile) was determined as 77 ± 83 ng/g; in data set [3] (brain (cerebellum)), 24 ± 5.8 ng/g; in data set [3] (brain (cerebrum)), 12 ± 3.8 ng/g; in data set [3] (heart), 17 ± 7 ng/g; in data set [3] (kidney (left)), 24 ± 11 ng/g; in data set [3] (kidney (right)), 21 ± 16 ng/g. Also, the concentration at 6 h in data set [3] (liver) came out at 18 ± 3.7 ng/g; in data set [3] (lung (left)), 61 ± 50 ng/g; in data set [3] (lung (right)), 69 ± 37 ng/g; in data set [3] (psoas muscle), 9.1 ± 3.3 ng/g; in data set [3] (skeletal muscle) it was 16 ± 0.94 ng/g; in data set [3] (spleen), 7.1 ± 3.8 ng/g. For the same molecule, the Detection in dura result in data set [3] (setting [7]) is reported as “not detected”. Moreover, the “Detection in vitreous humor (qualitative analysis)” value in data set [3] (setting [7]) is reported as “not detected”.

hydroxypentyl-JWH-210 [HO-JWH-210]: the “Concentration in abdominal adipose tissue, individual pig” value in data set [3] (pigs, 6 h after i.v. 200 µg/kg BW JWH-210, present in one pig only) is listed as 6 ng/g. Also, the “Concentration in perirenal adipose tissue, individual pigs” value in data set [3] (pigs, 6 h after i.v. 200 µg/kg BW JWH-210, present in two pigs only) is 4.5 ng/g and 9 ng/g.

Turning to hydroxypentyl-RCS-4 [HO-RCS-4], the LogP in data set [5] is 4.08. Further, in data set [3] (pigs, 6 h after i.v. 200 µg/kg BW RCS-4, only in two pigs), the “Concentration in skeletal muscle, individual pigs” value is 5.7 ng/g and 1.6 ng/g.

Values taken from publication PMC5771047 (Current Neuropharmacology, 2017).
